Biological target: T1, endo β-1,4-D-glucanase
T1 construct: gene egl1; native secreted enzyme purified from solid state culture (ammonium sulfate, DEAE-Sepharose, Sephadex G-100); ~55 kDa on SDS-PAGE, monomer
Assay: inhibition of CMC hydrolysis, DNS reducing sugar assay, Lineweaver-Burk plot
Assay type: biochemical, Trichoderma harzianum
Settings: competitive; substrate carboxymethyl cellulose; cellobiose 5 and 10 mM
Description: inhibition of CMC hydrolysis, DNS reducing sugar assay, Lineweaver-Burk plot on endo β-1,4-D-glucanase | cellobiose to be competitive inhibitor of endo β-1,4-D-glucanase in the presence of CMC substrate

SMILES: OC[C@H]1O[C@@H](O[C@H]2[C@H](O)[C@@H](O)C(O)O[C@@H]2CO)[C@H](O)[C@@H](O)[C@@H]1O (stereo partly shown) [cellobiose]
- Ki: 66 mM

— PMC4829572, “Purification and characterization of endo β-1,4-D-glucanase from Trichoderma harzianum strain HZN11 and its application in production of bioethanol from sweet sorghum bagasse” (3 Biotech, 2016)
